Assay results from US6229016A, “Method for treating tumors using 2-aryl-naphthyridin-4-ones” (priority 2000, dated 2001).
Like-named read-outs stand apart in the source and are kept apart here.

What was measured:
[1] = test system: tubulin; experiment: Tubulin polymerization assay; format: biochemical, bovine
Protocol: Electrophoretically homogeneous bovine brain tubulin was purified as described in E. Hamel, et al. Biochemistry 23:4173 (1984).
The tubulin polymerization assay was performed as described in S. Kuo, et al. J. Med. Chem. 36:1146 (1993); L. Li, et al. J. Med. Chem. 37:1126 (1994); and L. Li J. Med. Chem. 37:3400 (1994). In brief, tubulin at 1.2 mg/ml (12 μM) was preincubated for 15 min at 26° C. in a 0.24-ml volume of 0.8 M monosodium glutamate (pH 6.6 with NaOH in a 2 M stock solution) with varying drug concentrations. The drug stock solutions were in DMSO, and the final solvent concentration was 4 % (v/v). All concentrations are in terms of the final reaction volume (0.25 ml). The reaction mixtures were chilled on ice, and 10 μl of 10 mM GTP was added to each reaction mixture. Samples were transferred to cuvettes held at 0° C. by an electronic temperature controller in Gilford spectrophotometers. Baselines were established at 350 nm, and polymerization initiated by a temperature jump to 26° C. The jump took about 50 sec to complete. After 20 min, turbidity readings were recorded, and the temperature controller was set to 0C. When depolymerization was complete, turbidity readings were again recorded. […] IC50 values were obtained graphically from inhibition of polymerization by different drug concentrations.
Electrophoretically, homogeneous bovine brain tubulin was purified as described in Example 6.
The tubulin polymerization assay was performed as described in Example 6.

[2] = test system: NCI's 60 human tumor cell line; experiment: NCI 60 human tumor cell line in vitro screen (average / whole panel); format: cell-based; details: calculated from all cell lines tested, molar concentrations, read-out: average log GI50 (converted)
[3] = test system: HL-60(TB) leukemia cell line; experiment: cells; format: cell-based; details: Homo sapiens; HL-60(TB); read-out: Cytotoxicity log GI50 (converted)
[4] = test system: NCI-H460 non-small cell lung cancer cell line; experiment: NCI in vitro screen, non-small cell lung cancer NCI-H460; format: cell-based; details: Homo sapiens, read-out: Cytotoxicity log GI50 (converted)
[5] = test system: HCT-116 colon cancer cell line; experiment: NCI in vitro screen, colon cancer HCT-116; format: cell-based; details: Homo sapiens; HCT-1.16 (head); HCT-116 (footnote); read-out: Cytotoxicity log GI50 (converted)
[6] = test system: SF-295 CNS cancer cell line; experiment: NCI in vitro screen, CNS cancer SF-295; format: cell-based; details: Homo sapiens, read-out: Cytotoxicity log GI50 (converted)
[7] = test system: U-251 CNS cancer cell line; experiment: NCI in vitro screen, CNS cancer U-251; format: cell-based; details: Homo sapiens, read-out: Cytotoxicity log GI50 (converted)
[8] = test system: SK-MEL-5 melanoma cell line; experiment: NCI in vitro screen, melanoma SK-MEL-5; format: cell-based; details: Homo sapiens, read-out: Cytotoxicity log GI50 (converted)
From the text: (§1) Compounds 41-51 and 53-68 were submitted to NCI and assayed in the NCI's in vitro disease-oriented antitumor screen, which involves determination of a test compound's effects on the growth of approximately 60 human tumor cell lines. See, M. R. Boyd, et al. In Cancer: Principles and Practice of Oncology Updates; De Vita, V. T., Hellman, S., Rosenberg, S. A., Eds; J. B. Lippincoft: Philadelphia, pp 1-12 (1989); and A. Monks, et al. J. Natl. Cancer Inst. 83:757 (1991). These lines include leukemia, non-small cell lung, colon, central nervous system (CNS), melanoma, ovarian, renal, prostate, and breast cancers.
(§2) Compounds 29'-51' were submitted to NCI and assayed in the NCI's in vitro disease-oriented antitumor screen, using the techniques described in Example 5. This assay involves determinations of a test agent's effect on growth parameters against a panel of approximately 60 human tumor cell lines, derived largely from solid tumors, including non-small cell lung, colon, central nervous system, renal, ovarian, prostate, and breast cancers, plus a few leukemia cell lines. The cytotoxic effects of each compound are obtained as GI50 or […] values, which represent the molar drug concentrations required to cause half growth inhibition and total growth inhibition, respectively. The results are expressed for each cell line as average log GI50 values in Table 4, as log GI50 values in Table 5, and as log TGI values and average log TGI values in Table 6.

[9] = test system: OVCAR-3 ovarian cancer cell line; experiment: NCI in vitro screen, ovarian cancer OVCAR-3; format: cell-based; details: Homo sapiens, read-out: Cytotoxicity log GI50 (converted)
[10] = test system: 786-0 renal cancer cell line; experiment: NCI in vitro screen, renal cancer 786-0; format: cell-based; details: Homo sapiens, read-out: Cytotoxicity log GI50 (converted)
From the text: as §1, §2

[11] = test system: PC-3 prostate cancer cell line; experiment: NCI in vitro screen, prostate cancer PC-3; format: cell-based; details: Homo sapiens, read-out: Cytotoxicity log GI50 (converted)
From the text: as §1, §2

[12] = test system: MDA-MB-435 breast cancer cell line; experiment: NCI in vitro screen, breast cancer MDA-MB-435; format: cell-based; details: Homo sapiens, read-out: Cytotoxicity log GI50 (converted)
[13] = test system: MDA-N breast cancer cell line; experiment: NCI in vitro screen, breast cancer MDA-N; format: cell-based; details: Homo sapiens, read-out: Cytotoxicity log GI50 (converted)
From the text: as §1, §2

[14] = Tables 1 and 4, read-out: ITP HC50 ± SD (Inhibition of Tubulin Polymerization)
[15] = read-out: IC50, inhibition of tubulin polymerization

| SMILES | IC50 [1, 14] [µM] | GI50 [2] [µM] | GI50 [3] [µM] | GI50 [4] [µM] | GI50 [5] [µM] | GI50 [6] [µM] | GI50 [7] [µM] | GI50 [8] [µM] | GI50 [9] [µM] | GI50 [10] [µM] | GI50 [11] [µM] | GI50 [12] [µM] | GI50 [13] [µM] | IC50 [1, 15] [µM] |
| --- | --- | --- | --- | --- | --- | --- | --- | --- | --- | --- | --- | --- | --- | --- |
| O=C1CC(c2ccc(F)cc2)=Nc2ncccc21 [Compound 56, 2-(4'-Fluorophenyl)-1,8-naphthyridin-4-one] | > 40 | 45.7 | 12.9 | 34.7 | 42.7 | 50.1 | 47.9 | 30.2 | 45.7 | 44.7 | 45.7 | 12 | 14.1 |  |
| Cc1ccc(C2=Nc3nc(C)ccc3C(=O)C2)cc1 [Compound 69, 2-(4'-Methylphenyl)-7-methyl-1,8-naphthyridin-4-one] | 4.9 ± 0.2 |  |  |  |  |  |  |  |  |  |  |  |  |  |
| Cc1cc(C)c2c(n1)N=C(c1ccc(Cl)cc1)CC2=O [Compound 66, 2-(4'-Chlorophenyl)-5,7-dimethyl-1 ,8-naphthyridin-4-one] | 32 ± 8 | 19.5 | 25.1 | 22.4 | 14.8 | 16.2 | 30.2 | 14.1 | 18.2 | 21.4 | 6.31 | 4.07 | 3.63 | 11 to 32 |
| Cc1cnc2c(c1)C(=O)CC(c1ccc(F)cc1)=N2 [Compound 58, 2-(4'-Fluorophenyl)-6-methyl-1,8-naphthyridin-4-one] | 20 ± 2 | 26.3 | 2.4 | 33.9 | 24 | 29.5 | 25.1 | 21.9 | 22.4 | 32.4 | 25.7 | 2.63 | 3.02 | 11 to 32 |
| Cc1ccc2c(n1)N=C(c1ccc(Cl)cc1)CC2=O [Compound 65, 2-(4'-Chlorophenyl)-7-methyl-1,8-naphthyridin-4-one] | 11 ± 0.7 | 4.9 | 2.95 | 4.47 | 3.31 | 4.57 | 4.79 | 4.37 | 2.57 | 6.31 | 1.66 | 0.912 | 1 | 11 to 32 |
| Cc1ccc(C2=Nc3nc(C)cc(C)c3C(=O)C2)cc1 [Compound 70, 2-(4'-Methylphenyl)-5,7-dimethyl-1,8-naphthyridin-4-one] | 9.8 ± 2 |  |  |  |  |  |  |  |  |  |  |  |  |  |
| Cc1ccc(C2=Nc3ncc(C)cc3C(=O)C2)cc1 [Compound 68, 2-(4'-Methylphenyl)-6-methyl-1,8-naphthyridin-4-one] | 2.4 ± 0.8 |  |  |  |  |  |  |  |  |  |  |  |  |  |
| Cc1ccnc2c1C(=O)CC(c1ccc(Cl)cc1)=N2 [Compound 63, 2-(4'-Chlorophenyl)-5-methyl-1,8-naphthyridin-4-one] | 4.8 ± 1.4 | 5.13 | 1.78 | 3.72 | 3.72 | 5.37 | 4.57 | 3.47 | 3.16 | 3.98 | 2.88 | 0.759 | 1.32 | 1.5 to 9.8 |
| O=C1CC(c2ccc(F)cc2)=Nc2ncc(Cl)cc21 [Compound 61, 2-(4'-Fluorophenyl)-6-chloro-1,8-naphthyridin-4-one] | 16 ± 3 | 21.9 | 3.89 | 30.2 | 17 | 21.4 | 29.5 | 6.61 | 17.4 | 32.4 | 21.9 | 2.57 | 2.95 | 11 to 32 |
